ChEMBL document CHEMBL4004849, “Tetrazolylmethyl quinolines: Design, docking studies, synthesis, anticancer and antifungal analyses” (2017)
≈ marks a conversion by molar mass, not a printed value. Calls of active or inactive are those of the source. The rule behind the calls is not given here.

Experiments:
Type in all cases: functional
[1] = system: OVCAR-3; experiment: Growth inhibition of human OVCAR3 cells at 10^-5 M incubated for 48 hrs by sulforhodamine B assay relative to control
[2] = system: SNB-19; experiment: Growth inhibition of human SNB19 cells at 10^-5 M incubated for 48 hrs by sulforhodamine B assay relative to control
[3] = system: LOX IMVI; experiment: Growth inhibition of human LOXIMVI cells at 10^-5 M incubated for 48 hrs by sulforhodamine B assay relative to control
[4] = system: HT-29; experiment: Growth inhibition of human HT-29 cells at 10^-5 M incubated for 48 hrs by sulforhodamine B assay relative to control
[5] = system: U-251; experiment: Growth inhibition of human U251 cells at 10^-5 M incubated for 48 hrs by sulforhodamine B assay relative to control
[6] = system: M14; experiment: Growth inhibition of human M14 cells at 10^-5 M incubated for 48 hrs by sulforhodamine B assay relative to control
[7] = system: UACC-257; experiment: Growth inhibition of human UACC257 cells at 10^-5 M incubated for 48 hrs by sulforhodamine B assay relative to control
[8] = system: SF-539; experiment: Growth inhibition of human SF539 cells at 10^-5 M incubated for 48 hrs by sulforhodamine B assay relative to control
[9] = system: Malme-3M; experiment: Growth inhibition of human MALME-3M cells at 10^-5 M incubated for 48 hrs by sulforhodamine B assay relative to control
[10] = system: CAKI-1; experiment: Growth inhibition of human Caki1 cells at 10^-5 M incubated for 48 hrs by sulforhodamine B assay relative to control
[11] = system: T47D; experiment: Growth inhibition of human T47D cells at 10^-5 M incubated for 48 hrs by sulforhodamine B assay relative to control
[12] = system: NCI-H226; experiment: Growth inhibition of human NCI-H226 cells at 10^-5 M incubated for 48 hrs by sulforhodamine B assay relative to control
[13] = system: SF-295; experiment: Growth inhibition of human SF295 cells at 10^-5 M incubated for 48 hrs by sulforhodamine B assay relative to control
[14] = system: Aspergillus fumigatus; experiment: Antifungal activity against Aspergillus fumigatus after 24 hrs by serial dilution method
[15] = system: HL-60(TB); experiment: Growth inhibition of human HL-60(TB) cells at 10^-5 M incubated for 48 hrs by sulforhodamine B assay relative to control
[16] = system: KM12; experiment: Growth inhibition of human KM12 cells at 10^-5 M incubated for 48 hrs by sulforhodamine B assay relative to control
[17] = system: OVCAR-4; experiment: Growth inhibition of human OVCAR4 cells at 10^-5 M incubated for 48 hrs by sulforhodamine B assay relative to control
[18] = system: MCF7; experiment: Growth inhibition of human MCF7 cells at 10^-5 M incubated for 48 hrs by sulforhodamine B assay relative to control
[19] = system: MOLT-4; experiment: Growth inhibition of human MOLT4 cells at 10^-5 M incubated for 48 hrs by sulforhodamine B assay relative to control
[20] = system: SK-OV-3; experiment: Growth inhibition of human SKOV3 cells at 10^-5 M incubated for 48 hrs by sulforhodamine B assay relative to control
[21] = system: Candida albicans; experiment: Antifungal activity against Candida albicans after 24 hrs by serial dilution method
[22] = system: UO-31; experiment: Growth inhibition of human UO31 cells at 10^-5 M incubated for 48 hrs by sulforhodamine B assay relative to control
[23] = system: MDA-MB-231; experiment: Growth inhibition of human MDA-MB-231/ATCC cells at 10^-5 M incubated for 48 hrs by sulforhodamine B assay relative to control
[24] = system: SK-MEL-5; experiment: Growth inhibition of human SK-MEL-5 cells at 10^-5 M incubated for 48 hrs by sulforhodamine B assay relative to control
[25] = system: SNB-75; experiment: Growth inhibition of human SNB75 cells at 10^-5 M incubated for 48 hrs by sulforhodamine B assay relative to control
[26] = system: HCT-116; experiment: Growth inhibition of human HCT116 cells at 10^-5 M incubated for 48 hrs by sulforhodamine B assay relative to control
[27] = system: COLO 205; experiment: Growth inhibition of human COLO205 cells at 10^-5 M incubated for 48 hrs by sulforhodamine B assay relative to control
[28] = system: SK-MEL-28; experiment: Growth inhibition of human SK-MEL-28 cells at 10^-5 M incubated for 48 hrs by sulforhodamine B assay relative to control
[29] = system: HCC 2998; experiment: Growth inhibition of human HCC2998 cells at 10^-5 M incubated for 48 hrs by sulforhodamine B assay relative to control
[30] = system: BT-549; experiment: Growth inhibition of human BT549 cells at 10^-5 M incubated for 48 hrs by sulforhodamine B assay relative to control
[31] = system: Aspergillus fumigatus; experiment: Antifungal activity against Aspergillus fumigatus at 100 ug/ml by disc diffusion method; conditions: read-out: IZ
[32] = system: MDA-MB-468; experiment: Growth inhibition of human MDA-MB-468 cells at 10^-5 M incubated for 48 hrs by sulforhodamine B assay relative to control
[33] = system: Hs-578T; experiment: Growth inhibition of human Hs 578T cells at 10^-5 M incubated for 48 hrs by sulforhodamine B assay relative to control
[34] = system: SF-268; experiment: Growth inhibition of human SF268 cells at 10^-5 M incubated for 48 hrs by sulforhodamine B assay relative to control
[35] = system: OVCAR-5; experiment: Growth inhibition of human OVCAR5 cells at 10^-5 M incubated for 48 hrs by sulforhodamine B assay relative to control
[36] = system: HCT-15; experiment: Growth inhibition of human HCT15 cells at 10^-5 M incubated for 48 hrs by sulforhodamine B assay relative to control
[37] = system: A549; experiment: Growth inhibition of human A549/ATCC cells at 10^-5 M incubated for 48 hrs by sulforhodamine B assay relative to control
[38] = system: NCI/ADR-RES; experiment: Growth inhibition of human NCI-ADR-RES cells at 10^-5 M incubated for 48 hrs by sulforhodamine B assay relative to control
[39] = system: MDA-MB-435; experiment: Growth inhibition of human MDA-MB-435 cells at 10^-5 M incubated for 48 hrs by sulforhodamine B assay relative to control
[40] = system: NCI-H522; experiment: Growth inhibition of human NCI-H522 cells at 10^-5 M incubated for 48 hrs by sulforhodamine B assay relative to control
[41] = system: SK-MEL-2; experiment: Growth inhibition of human SK-MEL-2 cells at 10^-5 M incubated for 48 hrs by sulforhodamine B assay relative to control
[42] = system: SR; experiment: Growth inhibition of human SR cells at 10^-5 M incubated for 48 hrs by sulforhodamine B assay relative to control
[43] = system: EKVX; experiment: Growth inhibition of human EKVX cells at 10^-5 M incubated for 48 hrs by sulforhodamine B assay relative to control
[44] = system: 786-0; experiment: Growth inhibition of human 786-0 cells at 10^-5 M incubated for 48 hrs by sulforhodamine B assay relative to control

Fc1ccc2nc(Cl)c(Cn3nnnc3CSc3ccccc3)cc2c1
growth inhibition (GI) [1]: Active | growth inhibition (GI) [2]: Active | growth inhibition (GI) [3]: Active | growth inhibition (GI) [4]: Active | growth inhibition (GI) [5]: Active | growth inhibition (GI) [6]: Active | growth inhibition (GI) [7]: Active | growth inhibition (GI) [8]: Active | growth inhibition (GI) [9]: Active | growth inhibition (GI) [10]: Active | growth inhibition (GI) [11]: Active | growth inhibition (GI) [12]: Active | growth inhibition (GI) [13]: Active | MIC [14]: 2.5 µg/mL (≈ 6.48 µM) | growth inhibition (GI) [15]: Active | growth inhibition (GI) [16]: Active | growth inhibition (GI) [17]: Active | growth inhibition (GI) [18]: Active | growth inhibition (GI) [19]: Active | growth inhibition (GI) [20]: Active | MIC [21]: 50 µg/mL (≈ 130 µM) | growth inhibition (GI) [22]: Active | growth inhibition (GI) [23]: Active | growth inhibition (GI) [24]: Active | growth inhibition (GI) [25]: Active | growth inhibition (GI) [26]: Active | growth inhibition (GI) [27]: Active | growth inhibition (GI) [28]: Active | growth inhibition (GI) [29]: Active | growth inhibition (GI) [30]: Active | zone of inhibition at 100 µg/mL [31]: 14 mm | growth inhibition (GI) [32]: Active | growth inhibition (GI) [33]: Active | growth inhibition (GI) [34]: Active | growth inhibition (GI) [35]: Active | growth inhibition (GI) [36]: Active | growth inhibition (GI) [37]: Active | growth inhibition (GI) [38]: Active | growth inhibition (GI) [39]: Active | growth inhibition (GI) [40]: Active | growth inhibition (GI) [41]: Active | growth inhibition (GI) [42]: Active | growth inhibition (GI) [43]: Active | growth inhibition (GI) [44]: Active

Clc1nc2ccc(Br)cc2cc1Cn1nnnc1Cc1ccccc1
growth inhibition (GI) [1]: Active | growth inhibition (GI) [2]: Active | growth inhibition (GI) [3]: Active | growth inhibition (GI) [4]: Active | growth inhibition (GI) [5]: Active | growth inhibition (GI) [6]: Active | growth inhibition (GI) [7]: Active | growth inhibition (GI) [8]: Active | growth inhibition (GI) [9]: Active | growth inhibition (GI) [10]: Active | growth inhibition (GI) [11]: Active | growth inhibition (GI) [12]: Active | growth inhibition (GI) [13]: Active | MIC [14]: 10 µg/mL (≈ 24.1 µM) | growth inhibition (GI) [15]: Active | growth inhibition (GI) [16]: Active | growth inhibition (GI) [17]: Active | growth inhibition (GI) [18]: Active | growth inhibition (GI) [19]: Active | growth inhibition (GI) [20]: Active | MIC [21]: 10 µg/mL (≈ 24.1 µM) | growth inhibition (GI) [22]: Active | growth inhibition (GI) [23]: Active | growth inhibition (GI) [24]: Active | growth inhibition (GI) [25]: Active | growth inhibition (GI) [26]: Active | growth inhibition (GI) [27]: Active | growth inhibition (GI) [28]: Active | growth inhibition (GI) [29]: Active | growth inhibition (GI) [30]: Active | zone of inhibition at 100 µg/mL [31]: 13 mm | growth inhibition (GI) [32]: Active | growth inhibition (GI) [33]: Active | growth inhibition (GI) [34]: Active | growth inhibition (GI) [35]: Active | growth inhibition (GI) [36]: Active | growth inhibition (GI) [37]: Active | growth inhibition (GI) [38]: Active | growth inhibition (GI) [39]: Active | growth inhibition (GI) [40]: Active | growth inhibition (GI) [41]: Active | growth inhibition (GI) [42]: Active | growth inhibition (GI) [43]: Active | growth inhibition (GI) [44]: Active

Cc1ccc2nc(Cl)c(Cn3nnnc3CSc3ccccc3)cc2c1
growth inhibition (GI) [1]: Active | growth inhibition (GI) [2]: Active | growth inhibition (GI) [3]: Active | growth inhibition (GI) [4]: Active | growth inhibition (GI) [5]: Active | growth inhibition (GI) [6]: Active | growth inhibition (GI) [7]: Active | growth inhibition (GI) [8]: Active | growth inhibition (GI) [9]: Active | growth inhibition (GI) [10]: Active | growth inhibition (GI) [11]: Active | growth inhibition (GI) [12]: Active | growth inhibition (GI) [13]: Active | MIC [14]: 25 µg/mL (≈ 65.5 µM) | growth inhibition (GI) [15]: Active | growth inhibition (GI) [16]: Active | growth inhibition (GI) [17]: Active | growth inhibition (GI) [18]: Active | growth inhibition (GI) [19]: Active | growth inhibition (GI) [20]: Active | MIC [21]: 10 µg/mL (≈ 26.2 µM) | growth inhibition (GI) [22]: Active | growth inhibition (GI) [23]: Active | growth inhibition (GI) [24]: Active | growth inhibition (GI) [25]: Active | growth inhibition (GI) [26]: Active | growth inhibition (GI) [27]: Active | growth inhibition (GI) [28]: Active | growth inhibition (GI) [29]: Active | growth inhibition (GI) [30]: Active | zone of inhibition at 100 µg/mL [31]: 16 mm | growth inhibition (GI) [32]: Active | growth inhibition (GI) [33]: Active | growth inhibition (GI) [34]: Active | growth inhibition (GI) [35]: Active | growth inhibition (GI) [36]: Active | growth inhibition (GI) [37]: Active | growth inhibition (GI) [38]: Active | growth inhibition (GI) [39]: Active | growth inhibition (GI) [40]: Active | growth inhibition (GI) [41]: Active | growth inhibition (GI) [42]: Active | growth inhibition (GI) [43]: Active | growth inhibition (GI) [44]: Active
